In patent US4618627A, “Catechol derivatives and pharmaceutical compositions thereof for inhibiting anaphylaxis (SRS-A)” (priority 1983, dated 1986):
pIC50: −log10 of the molar value.

Columns and labels:
[1] = system: antigen-induced histamine release; assay: Passive peritoneal anaphylaxis (PPA) in rats: histamine release; format: in vivo, male Wistar rats; details: 100 μg/kg i.p.; for inhibition at 0.1 mg/kg: Rattus norvegicus, ip, 30 sec before antigen, histamine, DSCG value is mean of 3 rats (footnote 1)
Method: (A) Passive peritoneal anaphylaxis (PPA) in rats The method was based on that of Orange et al^(1). […] After 4 hr, 5 ml of Tyrode solution containing 250 μg heparin and 2 mg DNP-BSA was injected i.p. Test drugs (100 μg/kg) were dissolved in 0.6 ml of saline and injected i.p. 30 sec before antigen administration. Five min. later, the rats were decapitated and the peritoneal fluid was collected by opening the peritoneal cavity into polycarbonate tubes in ice. The supernatant was separated for bioassay from the cellular residue by centrifugation at 2000 rpm for 5 min at 4° C. […] One unit of SRS-A refers to the concentration required to produce a contraction of the guinea-pig ileum equal in amplitude to that produced by 5 ng histamine base in that assay.

[2] = system: antigen-induced SRS-A release; assay: Passive peritoneal anaphylaxis (PPA) in rats: SRS-A release; format: in vivo, male Wistar rats; details: Rattus norvegicus, ip, 100 μg/kg i.p., 30 sec before antigen, DSCG value is mean of 3 rats (footnote 1)
Method: (A) Passive peritoneal anaphylaxis (PPA) in rats
The method was based on that of Orange et al^(1). Briefly, male Wistar rats weighing 275 to 325 g (Shizuoka Exp. Animal Agric, Coop. Assoc.) were sensitized by intraperitoneally (i.p.) injecting 5 ml of diluted (40-fold) mouse anti-DNP reaginic serum (PCA titer: 1280). After 4 hr, 5 ml of Tyrode solution containing 250 μg heparin and 2 mg DNP-BSA was injected i.p. Test drugs (100 μg/kg) were dissolved in 0.6 ml of saline and injected i.p. 30 sec before antigen administration. Five min. later, the rats were decapitated and the peritoneal fluid was collected by opening the peritoneal cavity into polycarbonate tubes in ice. The supernatant was separated for bioassay from the cellular residue by centrifugation at 2000 rpm for 5 min at 4° C.
Histamine and SRS-A were assayed using isolated guinea-pig ileum in the presence of 10^-7 M FPL-55712 and 10^-6 M mepyramine, respectively, in addition to 5×10^-7 M atropine. One unit of SRS-A refers to the concentration required to produce a contraction of the guinea-pig ileum equal in amplitude to that produced by 5 ng histamine base in that assay.

5-lipoxygenase = target: T1, 5-lipoxygenase (Mus musculus, UniProt P48999); assay: Assay of 5-lipoxygenase; format: biochemical; details: enzyme fraction from mastocytoma P-815 cells, [1-14C]-arachidonic acid, 37° C., 5 min; Probit method; read-out: IC 50 5-Lipoxygenase
T1 construct: endogenous in cells
T1 sequence (P48999 1-674): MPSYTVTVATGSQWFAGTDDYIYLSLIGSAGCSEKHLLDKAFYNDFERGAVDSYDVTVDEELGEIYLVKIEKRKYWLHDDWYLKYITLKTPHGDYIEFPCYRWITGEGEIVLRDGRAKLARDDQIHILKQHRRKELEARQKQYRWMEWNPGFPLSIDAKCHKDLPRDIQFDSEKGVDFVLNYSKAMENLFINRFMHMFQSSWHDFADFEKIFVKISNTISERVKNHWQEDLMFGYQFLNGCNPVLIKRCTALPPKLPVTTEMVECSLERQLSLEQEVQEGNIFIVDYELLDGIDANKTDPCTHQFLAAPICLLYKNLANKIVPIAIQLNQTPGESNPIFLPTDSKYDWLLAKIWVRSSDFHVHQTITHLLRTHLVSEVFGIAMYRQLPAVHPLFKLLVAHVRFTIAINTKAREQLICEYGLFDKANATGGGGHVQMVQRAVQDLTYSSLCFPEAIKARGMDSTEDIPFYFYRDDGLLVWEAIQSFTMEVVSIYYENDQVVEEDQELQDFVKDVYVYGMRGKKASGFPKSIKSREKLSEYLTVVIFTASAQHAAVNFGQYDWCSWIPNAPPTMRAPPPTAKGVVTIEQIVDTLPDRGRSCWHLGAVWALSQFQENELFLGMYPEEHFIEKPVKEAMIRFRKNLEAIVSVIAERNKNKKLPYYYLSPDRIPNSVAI
Method: (§1) (B) Assay of 5-lipoxygenase and cyclooygenase
(§2) The method was based on that of Koshihara et al^(1). In the case of assay of 5-lipoxygenase activity, an enzyme fraction from mastocytoma P-815 cells (10^7 cells/ml) was incubated with 0.2 μCi [1-^14 C]-arachidonic acid (56.9 Ci/mol), 0.8 mM CaCl2, 2×10^-5 M indoemthacin and various concentrations of test drugs at 37° C. for 5 min. In the case of assay of cyclooxygenase activity, CaCl2 and indomethacin were omitted from the above incubation mixture and incubation was performed at 37° C. for 7 min. Both reactions were terminated by adjusting the pH of the mixture to 3.0 with HCl. After extraction of the products with 8 volume ethyl acetate, each extract was concentrated and applied to TLC plate. For the separation of HETEs and prostaglandins, thin-layer chromatography was carried out using the solvent system: petroleum ether/diethyl ether/acetic acid (50:50:1) and ethyl acetate/2,2,4-trimethylpentane/acetic acid/water (11:5:2:10, upper phase), respectively. Radioactive spots were detected by autoradiography and scraped off and counted using a liquid scintillation spectrometer. The activities of 5-lipoxygenase and cyclooxygenase were expressed as the sum of radioactivities due to 5-HETE and 5,12-diHETE and due to PGD2, PGE2 and PGF2α, respectively. The IC 50 values were calculated by Probit method.

cyclooxygenase = assay: Assay of cyclooxygenase; format: biochemical; details: enzyme fraction from mastocytoma P-815 cells, [1-14C]-arachidonic acid, 37° C., 7 min, Probit method; for pIC50: read-out: IC 50 Cyclooxygenase
Method: as §1, §2

SMILES	inhibition at 0.1 mg/kg [1]	inhibition of histamine release (selectivity versus SRS-A) ([1]; rat PPA)	inhibition at 0.1 mg/kg [2]	pIC50 (5-lipoxygenase)	IC 50 Cyclooxygenase (cyclooxygenase)	pIC50 (cyclooxygenase)
O=C(O)c1cc(=O)c2c(OCC(O)COc3cccc4oc(C(=O)O)cc(=O)c34)cccc2o1 [DSCG, disodium cromoglycate, reference compound]	75.2%	inhibited the histamine release in a relatively selective manner	46.6%	–	–	–
CCCCC(C)C(O)CCc1ccc(O)c(O)c1 (centres unmarked) [Example 1, 1-(3,4-dihydroxyphenyl)-4-methyl-3-octanol]	37.8%	–	76.6%	6.52	En- hanced	–
CCCCCCC(O)CCc1ccc(O)c(O)c1 (centres unmarked) [Example 2, 1-(3,4-dihydroxyphenyl)-3-nonanol]	5.2%	–	57.3%	–	–	–
CCCCCCC(=O)CCc1ccc(O)c(O)c1 [Example 3, 1-(3,4-dihydroxyphenyl)-3-nonanone]	22.6%	–	53.9%	–	–	–
CCCCCCCCC(O)CCc1ccc(O)c(O)c1 (centres unmarked) [Example 9, 1-(3,4-Dihydroxyphenyl)-3-undecanol]	21.6%	–	53.6%	7.00	–	< 5.00
CCCCCC(C)C(O)CCc1ccc(O)c(O)c1 (centres unmarked) [Example 11, 1-(3,4-Dihydroxyphenyl)-4-methyl-3-nonanol]	17.6%	–	66.6%	–	–	–
CCCCCCCCCC(=O)Cc1ccc(O)c(O)c1 [Example 14, 1-(3,4-dihydroxyphenyl)-2-undecanone]	32.7%	–	58.9%	–	–	–
CCCCCCC(O)CCCc1ccc(O)c(O)c1 (centres unmarked) [Example 15, 1-(3,4-dihydroxyphenyl)-4-decanol]	18.4%	–	46.2%	–	–	–
CC(=O)CCCCCCCc1ccc(O)c(O)c1 [Example 20, 9-(3,4-dihydroxyphenyl)-2-nonanone]	17.9%	–	62.8%	6.64	–	–
OCCCCCCCCCCCc1ccc(O)c(O)c1 [Example 23, 11-(3,4-dihydroxyphenyl)-1-undecanol]	10.7%	–	69.6%	7.27	–	< 5.00
OCCCCCCCCCc1ccc(O)c(O)c1 [Example 25A, 9-(3,4-Dihydroxyphenyl)-1-nonanol]	-8.3%	–	43.9%	–	–	–
CCCCCC(C)C(=O)C=Cc1ccc(O)c(O)c1 (centres unmarked) [Example 29, 1-(3,4-dihydroxyphenyl)-4-methyl-1-nonen-3-one]	-32.4%	–	38.2%	–	–	–
